Measurements published in ChEMBL document CHEMBL6096728, “Simultaneous Induction of Immunogenic Pyroptosis and PD-L1 Downregulation by One Single Photosensitizer for Synergistic Cancer Photoimmunotherapy” (J Med Chem, 2025).
Calls of active or inactive are those of the source. No cut-off for these calls is given here.

Tests used:
MDA-MB-231 [1] = assay: Induction of pyroptosis in human MDA-MB-231 cells assessed as appearance of large bubbles in cell at 0.5 uM preincubated with compound for 4 hrs followed by light irradiation of 20 mW.cm/2 at 400 to 700nm for 10 mins by confocal fluorescence microscopy analysis; assay type: functional, cell-based
4T1 [2] = assay: Antitumor activity against mouse 4T1 cells implanted in BALB/c mouse model assessed as reduction in tumor growth at 25 mg/kg, iv measured after 14 days under light irradiation of 300 mW.cm/2 at 400 to 700nm measured after 5 mins; assay type: functional, organism-based; settings: time 14.0 day
4T1 [3] = assay: Induction of intracellular ROS generation in mouse 4T1 cells assessed as increase in fluorescence intensity at 0.1 uM preincubated for 2 hrs followed by compound washout further incubated with DCFH-DA probe for 30 mins under light irradiation of 20 mW.cm/2 at 400 to 700nm measured after 10 mins by flow cytometry analysis; assay type: functional, cell-based
[4] = Phototoxicity against human MDA-MB-231 cells preincubated for 24 hrs followed by light irradiation of 20 mW.cm/2 at 400 to 700nm for 10 mins under hypoxia condition by CCK-8 method; assay type: functional, cell-based; settings: MDA-MB-231, light or radiation study
[5] = Drug accumulation in BALB/c mouse tumor implanted with mouse 4T1 cells assessed as increase in fluorescence intensity at 25 mg/kg, iv measured after 3 hrs by imaging based analysis; assay type: ADME, organism-based, Neoplasm; settings: in vivo
4T1 [6] = assay: Antitumor immunity against mouse 4T1 cells implanted in BALB/c mouse model assessed as increase in proportion of tumor infiltrating CD8+ T cells at 25 mg/kg, iv measured after 14 days under light irradiation of 300 mW.cm/2 at 400 to 700nm measured after 5 mins by immunofluorescence analysis; assay type: functional, organism-based; settings: time 14.0 day
[7] = Toxicity in BALB/c mouse assessed as effect on lung at 25 mg/kg, iv measured after 14 days under light irradiation of 300 mW.cm/2 at 400 to 700nm measured after 5 mins; assay type: organism-based; settings: in vivo, 336 h, 0.7 µM, time 14 day
MDA-MB-231 [8] = assay: Induction of pyroptosis in human MDA-MB-231 cells assessed as upregulation of caspase-3 expression level at 0.1 to 0.5 uM incubated with compound for 12 hrs under dark condition by Western blot analysis; assay type: functional, cell-based; settings: dose 0.1-0.5 µM
4T1 [9] = assay: Induction of pyroptosis in mouse 4T1 cells assessed as cell swelling at 0.5 uM preincubated with compound for 4 hrs followed by light irradiation of 20 mW.cm/2 at 400 to 700nm for 10 mins by confocal fluorescence microscopy analysis; assay type: functional, cell-based
MDA-MB-231 [10] = assay: Induction of pyroptosis in human MDA-MB-231 cells assessed as formation of bubble-like protrusion on cell surface at 0.25 uM preincubated with compound for 12 hrs followed by light irradiation of 20 mW.cm/2 at 400 to 700nm for 10 mins by confocal fluorescence microscopy analysis; assay type: functional, cell-based
[11] = Phototoxicity against human MDA-MB-231 cells preincubated for 2 hrs followed by light irradiation of 20 mW.cm/2 at 400 at 700nm for 24 hrs by CCK-8 method; assay type: functional, cell-based; settings: MDA-MB-231, light or radiation study
MDA-MB-231 [12] = assay: Inhibition of STAT3 phosphorylation level in human MDA-MB-231 cells at 0.5 uM incubated for 24 hrs under light irradiation of 20 mW.cm/2 at 400 to 700nm for 10 mins by Western blot analysis; assay type: functional, cell-based
MDA-MB-231 [13] = assay: Photocytotoxicity in human MDA-MB-231 cells assessed as reduction in 3D multicellular spheroids diameter at 0.5 to 1 uM incubated for 24 hrs under light irradiation of 50 mW.cm/2 at 400 to 700nm measured after 10 mins in hypoxia condition; assay type: functional, cell-based; settings: dose 0.5-1 µM
MDA-MB-231 [14] = assay: Photocytotoxicity in human MDA-MB-231 cells assessed as cell viablity incubated for 24 hrs under light irradiation of 50 mW.cm/2 at 400 to 700nm measured after 10 mins in normoxia condition by CCK-8 method; assay type: functional, cell-based; settings: MDA-MB-231, light or radiation study
[15] = Toxicity in BALB/c mouse assessed as effect on tumor at 25 mg/kg, iv measured after 14 days under light irradiation of 300 mW.cm/2 at 400 to 700nm measured after 5 mins by H and E staining based analysis; assay type: organism-based; settings: in vivo, 336 h, 0.7 µM, time 14 day
MDA-MB-231 [16] = assay: Induction of pyroptosis mediated immunogenic cell death in human MDA-MB-231 cells assessed as increase in CRT exposure on cell membrane at 0.5 uM incubated for 12 hrs under light irradiation of 20 mW.cm/2 at 400 to 700nm for 10 mins; assay type: functional, cell-based
[17] = Toxicity in BALB/c mouse assessed as effect on WBC at 25 mg/kg, iv measured after 14 days; assay type: organism-based; settings: in vivo, 336 h, time 14 day
4T1 [18] = assay: Induction of pyroptosis in mouse 4T1 cells assessed as appearance of large bubbles in cell at 0.5 uM preincubated with compound for 4 hrs followed by light irradiation of 20 mW.cm/2 at 400 to 700nm for 10 mins by confocal fluorescence microscopy analysis; assay type: functional, cell-based
MDA-MB-231 [19] = assay: Induction of pyroptosis in human MDA-MB-231 cells assessed as effect on GSDMD-N expression level at 0.1 to 0.5 uM preincubated with compound for 12 hrs followed by light irradiation of 20 mW.cm/2 at 400 to 700nm for 10 mins by Western blot analysis; assay type: functional, cell-based; settings: dose 0.1-0.5 µM
MDA-MB-231 [20] = assay: Induction of pyroptosis in human MDA-MB-231 cells assessed as effect on caspase-1 expression level at 0.1 to 0.5 uM preincubated with compound for 12 hrs followed by light irradiation of 20 mW.cm/2 at 400 to 700nm for 10 mins by Western blot analysis; assay type: functional, cell-based; settings: dose 0.1-0.5 µM
MDA-MB-231 [21] = assay: Downregulation of PD-L1 expression level in human MDA-MB-231 cells at 0.5 uM preincubated with MG-132 followed by compound addition and measured after 24 hrs under light irradiation of 20 mW.cm/2 at 400 to 700nm for 10 mins by Western blot analysis; assay type: functional, cell-based
4T1 [22] = assay: Antitumor immunity against mouse 4T1 cells implanted in BALB/c mouse model assessed as upregulation of proportion of neutrophils in lymph node at 25 mg/kg, iv measured after 14 days under light irradiation of 300 mW.cm/2 at 400 to 700nm measured after 5 mins by flow cytometry analysis; assay type: functional, organism-based; settings: time 14.0 day
[23] = Toxicity in BALB/c mouse assessed as effect on hemoglobin at 25 mg/kg, iv measured after 14 days under light irradiation of 300 mW.cm/2 at 400 to 700nm measured after 5 mins; assay type: organism-based; settings: in vivo, 336 h, 0.7 µM, time 14 day
[24] = Toxicity in BALB/c mouse assessed as effect on hemoglobin at 25 mg/kg, iv measured after 14 days; assay type: organism-based; settings: in vivo, 336 h, time 14 day
[25] = Toxicity in BALB/c mouse assessed as effect on WBC at 25 mg/kg, iv measured after 14 days under light irradiation of 300 mW.cm/2 at 400 to 700nm measured after 5 mins; assay type: organism-based; settings: in vivo, 336 h, time 14 day
4T1 [26] = assay: Antitumor immunity against mouse 4T1 cells implanted in BALB/c mouse model assessed as upregulation of proportion of dendritic cells in lymph node at 25 mg/kg, iv measured after 14 days under light irradiation of 300 mW.cm/2 at 400 to 700nm measured after 5 mins by flow cytometry analysis; assay type: functional, organism-based; settings: time 14.0 day
[27] = Drug accumulation in BALB/c mouse tumor implanted with mouse 4T1 cells assessed as increase in fluorescence intensity at 25 mg/kg, iv measured after 0 to 3 hrs by imaging based analysis; assay type: ADME, organism-based, Neoplasm; settings: in vivo, time 0-3 hrs

With `O=c1cc2sc3cc(N4CCNCC4)ccc3nc-2c2ccccc12` the Activity (MDA-MB-231 [1]) was “Active”, the Activity (4T1 [2]) was “Active” and the Activity (4T1 [3]) was “Active”. The IC50 [4] was 303 nM, the Drug uptake [5] was “Active” and the Activity (4T1 [6]) was “Active”. For the same compound, the Activity [7] was “Non-toxic”, the Activity (MDA-MB-231 [8]) was “Active; Compound Showed Negligible Changes” and the Activity (4T1 [9]) was “Active”. For the same compound, the Activity (MDA-MB-231 [10]) was “Active”, the IC50 [11] was 164 nM and the inhibition (MDA-MB-231 [12]) was “Active”. For the same compound, the Activity (MDA-MB-231 [13]) was “Active”, the IC50 (MDA-MB-231 [14]) was 356 nM and the Activity [15] was “Toxic”. The Activity (MDA-MB-231 [16]) was “Active”, the Activity [17] was “Non-toxic” and the Activity (4T1 [18]) was “Active”. The Activity (MDA-MB-231 [19]) was “inactive”, the Activity (MDA-MB-231 [20]) was “inactive” and the Activity (MDA-MB-231 [21]) was “inactive”. For the same compound, the Activity (4T1 [22]) was “Active”, the Activity [23] was “Non-toxic” and the Activity [24] was “Non-toxic”. For the same compound, the Activity [25] was “Non-toxic”, the Activity (4T1 [26]) was “Active” and the Drug uptake [27] was “Active”.
